Source: ChEMBL document CHEMBL5550215, “Discovery of Novel Imidazo[1,2-a]pyridine-Based HDAC6 Inhibitors as an Anticarcinogen with a Cardioprotective Effect” (J Med Chem, 2024)

Tests used:
H9c2 [1] = test: Protection against H2O2 induced myocardial cell injury in rat H9c2 cells at 10 uM pretreated for 24 hrs followed by H2O2 exposure and measured after 1.5 hrs (reference value: 17.91 to 57.32%); assay type: functional; conditions: time 25.5 hrs
[2] = target: T1, Protein deacetylase HDAC6 (Homo sapiens) (UniProt Q9UBN7); conditions: dose 100.0 nM
T1 sequence (whole entry): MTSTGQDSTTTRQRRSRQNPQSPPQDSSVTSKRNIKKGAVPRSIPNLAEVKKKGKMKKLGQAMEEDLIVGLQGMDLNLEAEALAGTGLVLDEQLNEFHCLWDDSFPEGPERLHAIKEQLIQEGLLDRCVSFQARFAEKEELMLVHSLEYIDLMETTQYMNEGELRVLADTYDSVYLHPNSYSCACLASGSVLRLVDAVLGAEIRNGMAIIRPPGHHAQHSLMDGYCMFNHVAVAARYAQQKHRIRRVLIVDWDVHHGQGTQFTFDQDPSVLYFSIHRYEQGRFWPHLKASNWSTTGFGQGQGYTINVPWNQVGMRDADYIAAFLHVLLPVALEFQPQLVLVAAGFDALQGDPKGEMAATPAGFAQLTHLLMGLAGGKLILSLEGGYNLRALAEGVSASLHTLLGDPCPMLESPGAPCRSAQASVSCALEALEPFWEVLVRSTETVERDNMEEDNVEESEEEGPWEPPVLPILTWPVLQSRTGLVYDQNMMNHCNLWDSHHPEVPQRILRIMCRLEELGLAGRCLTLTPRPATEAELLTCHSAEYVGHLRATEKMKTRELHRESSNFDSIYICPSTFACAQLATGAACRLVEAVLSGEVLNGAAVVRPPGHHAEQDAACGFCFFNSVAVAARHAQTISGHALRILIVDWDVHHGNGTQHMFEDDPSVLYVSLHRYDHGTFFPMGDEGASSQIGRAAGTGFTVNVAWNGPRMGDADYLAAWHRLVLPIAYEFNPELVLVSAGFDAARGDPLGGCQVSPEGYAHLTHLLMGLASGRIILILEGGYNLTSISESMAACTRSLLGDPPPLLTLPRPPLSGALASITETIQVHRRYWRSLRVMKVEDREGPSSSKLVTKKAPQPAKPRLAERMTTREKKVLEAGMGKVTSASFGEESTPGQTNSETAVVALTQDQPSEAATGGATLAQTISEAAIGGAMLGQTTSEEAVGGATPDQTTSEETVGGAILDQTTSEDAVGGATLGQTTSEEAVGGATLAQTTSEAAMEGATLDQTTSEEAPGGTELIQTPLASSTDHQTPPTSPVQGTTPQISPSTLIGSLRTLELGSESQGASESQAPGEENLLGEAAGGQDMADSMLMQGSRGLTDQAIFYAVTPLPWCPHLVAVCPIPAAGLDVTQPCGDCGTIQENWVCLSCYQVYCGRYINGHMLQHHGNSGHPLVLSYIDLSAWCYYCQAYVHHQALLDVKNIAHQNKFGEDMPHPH
Description: Inhibition of HDAC6 (unknown origin) at 100 nM relative to control

H9c2 [3] = test: Protection against H2O2 induced myocardial cell injury in rat H9c2 cells at 5 uM pretreated for 24 hrs followed by H2O2 exposure and measured after 1.5 hrs (reference value: 41.79+/-1.59%); assay type: functional; conditions: time 25.5 hrs
H9c2 [4] = test: Protection against H2O2 induced myocardial cell injury in rat H9c2 cells assessed as fold change at 5 uM pretreated for 24 hrs followed by H2O2 exposure and measured after 1.5 hrs relative to H2O2 alone; assay type: functional; conditions: time 25.5 hrs
H9c2 [5] = test: Protection against H2O2 induced myocardial cell injury in rat H9c2 cells assessed as fold change at 10 uM pretreated for 24 hrs followed by H2O2 exposure and measured after 1.5 hrs relative to H2O2 alone; assay type: functional; conditions: time 25.5 hrs

## O=c1cc(-c2ccc(O)c(O)c2)oc2cc(O)cc(O)c12 [LUTEOLIN]
H9c2 [1]
  Activity: 91.43%
[2]
  inhibition: 1%
H9c2 [3]
  Activity: 86.37%
H9c2 [4]
  fold change (FC): 2.07
H9c2 [5]
  fold change (FC): 2.53
